According to ChEMBL document CHEMBL5303765, “Data for DCP probe BAY-7081” (2023):

Columns and labels:
[1] = biological target: Casein kinase II subunit alpha (Homo sapiens) (UniProt P68400); experiment: CSNK2A1 SGC Tm panel (DSF); conditions: for ΔTm: Compound concentration 10.0 uM
[2] = biological target: T1, Ephrin type-B receptor 1 (Homo sapiens) (UniProt P54762); experiment: EPHB1 SGC Tm panel (DSF); conditions: for ΔTm: Compound concentration 10.0 uM
T1 sequence (whole entry): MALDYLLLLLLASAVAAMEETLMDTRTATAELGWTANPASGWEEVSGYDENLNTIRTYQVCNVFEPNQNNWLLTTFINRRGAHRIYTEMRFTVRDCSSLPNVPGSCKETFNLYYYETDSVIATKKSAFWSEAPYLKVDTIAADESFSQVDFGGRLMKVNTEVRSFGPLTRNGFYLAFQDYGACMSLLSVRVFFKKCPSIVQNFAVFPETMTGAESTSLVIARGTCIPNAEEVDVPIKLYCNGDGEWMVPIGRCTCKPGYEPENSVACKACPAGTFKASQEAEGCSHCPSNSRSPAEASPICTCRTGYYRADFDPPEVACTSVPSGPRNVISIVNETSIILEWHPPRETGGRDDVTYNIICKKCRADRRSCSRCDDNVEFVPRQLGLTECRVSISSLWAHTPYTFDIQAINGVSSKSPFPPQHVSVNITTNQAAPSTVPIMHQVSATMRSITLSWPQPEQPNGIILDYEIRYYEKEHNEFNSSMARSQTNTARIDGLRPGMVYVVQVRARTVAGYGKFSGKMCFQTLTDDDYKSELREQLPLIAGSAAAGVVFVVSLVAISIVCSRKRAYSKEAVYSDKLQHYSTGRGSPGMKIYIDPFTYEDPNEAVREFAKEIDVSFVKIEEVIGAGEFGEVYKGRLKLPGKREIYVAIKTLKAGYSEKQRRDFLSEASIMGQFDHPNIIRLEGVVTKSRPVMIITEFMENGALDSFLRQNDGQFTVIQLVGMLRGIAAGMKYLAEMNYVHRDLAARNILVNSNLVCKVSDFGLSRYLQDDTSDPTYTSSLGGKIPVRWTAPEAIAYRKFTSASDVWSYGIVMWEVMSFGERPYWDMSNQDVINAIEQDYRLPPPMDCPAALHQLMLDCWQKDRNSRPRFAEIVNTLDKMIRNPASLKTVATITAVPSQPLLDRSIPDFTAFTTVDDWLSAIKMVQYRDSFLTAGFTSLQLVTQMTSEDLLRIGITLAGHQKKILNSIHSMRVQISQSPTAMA

[3] = biological target: T2, Transcription intermediary factor 1-alpha (Homo sapiens) (UniProt O15164); experiment: TIF1 SGC Tm panel (DSF); conditions: for ΔTm: Compound concentration 10.0 uM
T2 sequence (whole entry): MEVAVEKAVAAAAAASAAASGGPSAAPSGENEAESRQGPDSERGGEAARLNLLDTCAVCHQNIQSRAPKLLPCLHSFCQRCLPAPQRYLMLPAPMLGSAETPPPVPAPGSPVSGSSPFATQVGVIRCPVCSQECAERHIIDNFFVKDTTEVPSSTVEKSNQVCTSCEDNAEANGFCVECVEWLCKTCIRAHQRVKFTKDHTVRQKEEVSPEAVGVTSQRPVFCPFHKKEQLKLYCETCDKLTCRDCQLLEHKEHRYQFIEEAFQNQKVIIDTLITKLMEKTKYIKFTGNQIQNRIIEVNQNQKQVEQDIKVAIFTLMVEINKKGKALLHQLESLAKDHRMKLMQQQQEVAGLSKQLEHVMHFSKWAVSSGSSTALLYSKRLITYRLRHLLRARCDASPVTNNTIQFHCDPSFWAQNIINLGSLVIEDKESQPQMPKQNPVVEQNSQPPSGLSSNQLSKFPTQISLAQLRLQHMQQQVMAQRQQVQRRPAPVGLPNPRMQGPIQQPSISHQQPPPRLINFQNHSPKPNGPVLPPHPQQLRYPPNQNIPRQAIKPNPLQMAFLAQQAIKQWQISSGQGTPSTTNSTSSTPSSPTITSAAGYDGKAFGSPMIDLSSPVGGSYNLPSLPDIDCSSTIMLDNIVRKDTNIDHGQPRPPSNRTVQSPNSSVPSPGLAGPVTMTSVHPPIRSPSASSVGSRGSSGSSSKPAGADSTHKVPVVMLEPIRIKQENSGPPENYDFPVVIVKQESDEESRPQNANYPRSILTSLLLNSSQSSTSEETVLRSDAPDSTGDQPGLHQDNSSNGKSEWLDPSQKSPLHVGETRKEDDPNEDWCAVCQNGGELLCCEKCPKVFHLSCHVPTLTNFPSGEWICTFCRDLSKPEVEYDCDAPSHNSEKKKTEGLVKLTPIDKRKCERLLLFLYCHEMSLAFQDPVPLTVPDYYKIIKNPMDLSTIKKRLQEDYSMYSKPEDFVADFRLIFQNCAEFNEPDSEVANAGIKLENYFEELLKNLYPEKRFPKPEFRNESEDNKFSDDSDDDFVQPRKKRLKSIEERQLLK

[4] = biological target: T3, Dual specificity mitogen-activated protein kinase kinase 7 (Homo sapiens) (UniProt O14733); experiment: MAP2K7 SGC Tm panel (DSF); conditions: for ΔTm: Compound concentration 10.0 uM
T3 sequence (whole entry): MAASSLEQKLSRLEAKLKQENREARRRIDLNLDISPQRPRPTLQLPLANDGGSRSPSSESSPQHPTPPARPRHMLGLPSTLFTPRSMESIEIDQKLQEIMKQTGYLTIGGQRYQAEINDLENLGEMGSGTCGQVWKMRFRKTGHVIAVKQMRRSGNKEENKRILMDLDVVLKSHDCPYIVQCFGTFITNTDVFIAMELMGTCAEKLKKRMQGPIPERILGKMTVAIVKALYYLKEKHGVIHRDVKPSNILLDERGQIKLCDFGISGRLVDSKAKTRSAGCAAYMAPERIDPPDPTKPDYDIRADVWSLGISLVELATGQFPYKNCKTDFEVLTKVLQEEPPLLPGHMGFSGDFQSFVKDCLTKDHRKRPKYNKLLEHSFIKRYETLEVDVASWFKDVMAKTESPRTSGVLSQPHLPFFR

[5] = biological target: T4, 5-hydroxytryptamine receptor 3A (Homo sapiens) (UniProt P46098); conditions: Compound concentration 10.0 uM
T4 sequence (whole entry): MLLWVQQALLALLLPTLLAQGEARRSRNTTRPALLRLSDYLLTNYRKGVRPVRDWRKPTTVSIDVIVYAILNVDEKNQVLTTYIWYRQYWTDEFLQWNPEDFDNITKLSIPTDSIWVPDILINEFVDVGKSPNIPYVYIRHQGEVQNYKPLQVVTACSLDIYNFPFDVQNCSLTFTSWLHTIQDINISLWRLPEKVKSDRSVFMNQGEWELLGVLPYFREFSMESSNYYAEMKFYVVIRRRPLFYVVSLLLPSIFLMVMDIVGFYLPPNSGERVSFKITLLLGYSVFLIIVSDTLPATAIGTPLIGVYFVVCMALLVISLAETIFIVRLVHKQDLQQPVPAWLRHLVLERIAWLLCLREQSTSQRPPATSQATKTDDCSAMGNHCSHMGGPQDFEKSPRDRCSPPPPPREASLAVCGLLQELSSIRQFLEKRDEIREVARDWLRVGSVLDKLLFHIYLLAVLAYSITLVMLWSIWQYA

Casein kinase II subunit alpha (Homo sapiens), sequence (P68400 whole entry, looked up): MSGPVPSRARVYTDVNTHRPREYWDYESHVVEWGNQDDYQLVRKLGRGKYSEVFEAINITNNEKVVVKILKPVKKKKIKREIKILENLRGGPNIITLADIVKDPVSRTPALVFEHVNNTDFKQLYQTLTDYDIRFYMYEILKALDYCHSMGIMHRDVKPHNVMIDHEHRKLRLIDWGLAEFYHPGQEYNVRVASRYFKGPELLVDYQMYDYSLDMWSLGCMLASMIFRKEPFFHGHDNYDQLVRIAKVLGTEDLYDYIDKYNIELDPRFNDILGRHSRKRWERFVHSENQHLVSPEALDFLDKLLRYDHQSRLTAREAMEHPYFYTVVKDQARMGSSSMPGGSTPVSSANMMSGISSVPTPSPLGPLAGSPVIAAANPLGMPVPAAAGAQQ

CCC[C@H]1CNCc2c1[nH]c(=O)c(C#N)c2N1CCC2(CC1)CC2
delta Tm Staurosporine positive control [1]: 4.47 | ΔTm [1]: -0.228 | delta Tm Staurosporine positive control [2]: 5.62 | ΔTm [2]: 0.0299 | delta Tm Staurosporine positive control [3]: 0.0394 | ΔTm [3]: -0.211 | delta Tm Staurosporine positive control [4]: 7.05 | ΔTm [4]: -1.17 | inhibition [5]: 7.4%

CCC[C@@H]1CNCc2c1[nH]c(=O)c(C#N)c2N1CCC2(CC1)CC2
delta Tm Staurosporine positive control [1]: 4.47 | ΔTm [1]: -0.184 | delta Tm Staurosporine positive control [2]: 5.62 | ΔTm [2]: 0.00973 | delta Tm Staurosporine positive control [3]: 0.0394 | ΔTm [3]: -0.244 | delta Tm Staurosporine positive control [4]: 7.05 | ΔTm [4]: -1.17 | inhibition [5]: 5.44%
